Legend:
[1] = test system: A/J mice; assay: Short-term murine model of asthma (OVA provocations at days 19 and 20), prophylactic treatment; assay type: in vivo; settings: 100 mg/Kg oral, 1 h before each OVA challenge, 24 h after last provocation
Experimental: Sensitization was performed by means of a subcutaneous injection of 50 μg ovalbumin (OVA) (grade V; Sigma-Aldrich, St. Louis, MO) adsorbed to 5 mg of Al(OH)3 in 0.2 mL of sterile 0.9% NaCl (saline) at days 0 and 14. Intranasal OVA provocations (25 μg /25 μL saline) were performed at 19 and 20 days post-sensitization under isofluorane volatile anaesthesia (Cristalia, São Paulo, Brazil). Alternatively, sensitization as described above were done at days 0 and 7, while the OVA provocations were carried out at days 14, 21, 28 and 35 [39]. Negative control groups were represented by sensitized mice in which allergen was replaced by saline as a challenge. […]
The EPO activity present in lung tissue was determined with a colorimetric assay as described by Strath et al. (1985), with minor modifications. […] The optical density reading was performed on the SpectraMax M5 spectrophotometer (Molecular Devices) at a wavelength of 492 nm.
Twenty-four hours after the last challenge the animals were killed by an over dose of thiopental (200 mg/kg, i.p.) and bronchoalveolar lavage (BAL) was performed three times by intratracheal instillation of 500 μL of PBS and EDTA (10 mM) through a trachea cannula and gently aspirating the fluid. […] Total leukocyte numbers were measured in Neubauer chambers using light microcopy after diluting the samples in Türk solution (2% acetic acid). […]

[2] = test system: A/J mice; assay: Duration of xylazine/ketamine anesthesia (behavioral correlate of emesis); assay type: in vivo
Experimental: This assessment was carried out as previously reported. […] The animals were placed in dorsal position and their spontaneous return to the prone position was used as an endpoint to determine anesthesia duration.

[3] = target: T1, PDE4D (Homo sapiens, UniProt Q08499); assay: PDE4D inhibition, IMAP fluorescence polarization protocol; assay type: biochemical
T1 construct: purchased MDS PHARMA
Experimental: The enzymatic reactions were carried at room temperature in a 96-well black plate by co-incubating 25 μL of 200 nM FAM-cAMP (R7513), 5 μL of putative inhibitory compounds and 20 μL of the PDE4 isoform dissolved in assay buffer (R7364) for 1 h. All enzymes were obtained from human recombinant sources (MDS PHARMA), whereas the other reagents were purchased from Molecular Devices. […] PDE4 inhibitors were dissolved in dimethyl sulfoxide (DMSO) at a final concentration of 0.1%.
The inhibitory activities of the new sulfonamide derivatives were evaluated for their selectivity against the four isoforms of human PDE4, i.e. PDE4A, PDE4B, PDE4C, and PDE4D, using an IMAP-FP protocol.

[4] = test system: PDE3; assay: PDE3 activity inhibition; assay type: biochemical; settings: 10 μM
[5] = target: T2, PDE2A (Homo sapiens, UniProt O00408); assay: PDE selectivity profile evaluated by CEREP; assay type: biochemical; settings: 10 μM; data not shown
T2 construct: CEREP
Experimental: (§1) The selectivity profile of compound 6a (LASSBio-448) toward the human PDE1, PDE2, PDE5-PDE8, PDE10 and PDE11 was evaluated by CEREP.

[6] = target: T3, PDE1B (Homo sapiens, UniProt Q01064); assay: PDE selectivity profile evaluated by CEREP; assay type: biochemical; settings: 10 μM; data not shown
T3 construct: CEREP
Experimental: as §1

[7] = test system: A/J mice; assay: Murine model of asthma with 4 weekly OVA provocations (days 14, 21, 28, 35), interventional treatment; assay type: in vivo; settings: LASSBio-448 100 mg/Kg oral
Experimental: Sensitization was performed by means of a subcutaneous injection of 50 μg ovalbumin (OVA) (grade V; Sigma-Aldrich, St. Louis, MO) adsorbed to 5 mg of Al(OH)3 in 0.2 mL of sterile 0.9% NaCl (saline) at days 0 and 14. Intranasal OVA provocations (25 μg /25 μL saline) were performed at 19 and 20 days post-sensitization under isofluorane volatile anaesthesia (Cristalia, São Paulo, Brazil). Alternatively, sensitization as described above were done at days 0 and 7, while the OVA provocations were carried out at days 14, 21, 28 and 35 [39]. Negative control groups were represented by sensitized mice in which allergen was replaced by saline as a challenge. Treatments were done orally 1 h before provocations. Test compounds were dissolved in saline containing 0.2% Tween 80. All solutions were freshly prepared immediately before use. Analyses were performed 24 h after the last provocation.
Airflow and transpulmonary pressure were recorded with a Buxco pulmonary mechanics processing system (Buxco Electronics, Sharon, CT), which calculated resistance (cmH2O.s/ml) and dynamic lung compliance (mL/cmH2O) in each breath cycle. Elastance was calculated as the inverse of compliance values. Mice were anesthetized with nembutal (60 mg/kg), and the neuromuscular activity was blocked with bromide pancuronium (1 mg/kg). Animals were allowed to stabilize for 5 min and increasing concentrations of methacholine (3–27 mg/mL) were aerosolized for 5 min each. Baseline pulmonary parameters were assessed with aerosolized phosphate buffer solution (PBS).
The EPO activity present in lung tissue was determined with a colorimetric assay as described by Strath et al. (1985), with minor modifications. Briefly, the lungs were cannulated and perfused with saline/EDTA (20 mM). Then, lung samples were homogenized in buffer solution containing 0.5% HBSS (Hank´s balanced solution, pH 7.4; Sigma Chemical Co.) using a tissue homogenizer (T25 ultra-Tirrax). Samples were centrifuged at 1300 xg for 10 min at 4°C. Red blood cells were removed by hypotonic and hypertonic lysis. The suspended cells were then centrifuged again at 1300 xg for 10 min at 4°C. The pellet was then suspended in a solution of HBSS containing 0.5% of HTAB (hexadecyltrimethylamonium bromide; Sigma Chemical Co.) (pH 7.4). This suspension was subjected to heat shock for lysing the cells in three cycles freeze/thawed. At the end, the supernatants were collected, centrifuged at 12000 rpm for 15 min at 4°C and assayed spectrophotometrically for EPO determination. Fifty μl of the samples were placed, and then 50 μl of the substrate (1.5 mM o-phenylenediamine and 6.6 mM hydrogen peroxide in 0.05 mM Tris-HCl buffer, pH 8.0) was added and, after a 30 min incubation at room temperature, 50 μl of H2SO4 (4M) was added to stop the reaction. The optical density reading was performed on the SpectraMax M5 spectrophotometer (Molecular Devices) at a wavelength of 492 nm.
Right lungs tissue samples from saline- and OVA-exposed mice were homogenized in PBS containing 0.05% Triton X-100 and a protease inhibitor cocktail (Complete®, Hoffmann-La Roche Ltd, Basel, Switzerland). After centrifugation at 13000xg for 10 min and 4°C, the levels of IL-13, IL-5, IL-4 and eotaxin-2 were quantified in the supernatant, using commercially available ELISA kits (DuoSet; R&D Systems, Minneapolis, MN, USA). The results were expressed as picograms of cytokine per right lung.

[8] = rolipram 10 mg/Kg oral, right lung, 24 h after last challenge, vs vehicle, Fig 8

T1 sequence (Q08499 1-673 isoform Q08499-2): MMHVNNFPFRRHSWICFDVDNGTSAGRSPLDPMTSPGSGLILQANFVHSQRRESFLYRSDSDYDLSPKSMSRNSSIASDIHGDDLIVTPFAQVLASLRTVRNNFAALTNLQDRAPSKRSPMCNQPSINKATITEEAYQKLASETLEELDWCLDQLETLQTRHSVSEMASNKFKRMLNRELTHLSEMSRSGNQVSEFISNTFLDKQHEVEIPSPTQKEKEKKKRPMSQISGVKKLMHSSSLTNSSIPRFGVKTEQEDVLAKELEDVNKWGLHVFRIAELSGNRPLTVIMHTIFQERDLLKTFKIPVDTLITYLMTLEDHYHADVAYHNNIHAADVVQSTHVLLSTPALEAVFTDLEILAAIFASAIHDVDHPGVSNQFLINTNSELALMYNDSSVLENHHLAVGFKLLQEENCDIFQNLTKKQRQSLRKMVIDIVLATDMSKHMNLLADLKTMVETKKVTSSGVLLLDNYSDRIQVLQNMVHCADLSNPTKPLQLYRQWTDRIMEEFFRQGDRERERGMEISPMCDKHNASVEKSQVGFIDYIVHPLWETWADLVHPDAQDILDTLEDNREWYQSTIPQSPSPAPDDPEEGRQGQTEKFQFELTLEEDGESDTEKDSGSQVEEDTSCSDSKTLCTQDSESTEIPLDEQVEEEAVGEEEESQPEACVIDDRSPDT
T2 sequence (O00408 whole entry): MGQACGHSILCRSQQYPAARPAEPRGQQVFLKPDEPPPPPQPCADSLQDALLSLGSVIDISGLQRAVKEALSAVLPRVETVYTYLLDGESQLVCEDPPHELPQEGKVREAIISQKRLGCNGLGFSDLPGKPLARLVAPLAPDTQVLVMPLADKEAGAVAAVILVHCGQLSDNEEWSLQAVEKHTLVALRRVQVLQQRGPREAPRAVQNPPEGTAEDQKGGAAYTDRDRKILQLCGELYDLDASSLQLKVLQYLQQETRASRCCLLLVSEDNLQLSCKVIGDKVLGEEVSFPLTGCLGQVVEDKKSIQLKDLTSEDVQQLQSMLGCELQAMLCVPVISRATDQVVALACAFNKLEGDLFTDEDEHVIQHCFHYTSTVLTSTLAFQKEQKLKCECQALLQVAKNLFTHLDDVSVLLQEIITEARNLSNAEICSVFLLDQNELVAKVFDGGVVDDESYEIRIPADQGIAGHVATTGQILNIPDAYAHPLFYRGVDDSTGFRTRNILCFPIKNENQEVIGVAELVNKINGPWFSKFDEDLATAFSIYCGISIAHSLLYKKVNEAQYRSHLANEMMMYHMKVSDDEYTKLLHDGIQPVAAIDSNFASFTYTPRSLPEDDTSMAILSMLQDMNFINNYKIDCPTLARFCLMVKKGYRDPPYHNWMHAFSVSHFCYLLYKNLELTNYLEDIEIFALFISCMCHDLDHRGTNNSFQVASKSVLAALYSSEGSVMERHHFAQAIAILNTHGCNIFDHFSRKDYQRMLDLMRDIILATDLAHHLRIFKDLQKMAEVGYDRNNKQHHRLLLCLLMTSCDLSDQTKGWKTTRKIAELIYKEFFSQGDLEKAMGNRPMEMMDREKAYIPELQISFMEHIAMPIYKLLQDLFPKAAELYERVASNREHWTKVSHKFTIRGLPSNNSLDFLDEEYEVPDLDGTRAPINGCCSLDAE
T3 sequence (Q01064 whole entry): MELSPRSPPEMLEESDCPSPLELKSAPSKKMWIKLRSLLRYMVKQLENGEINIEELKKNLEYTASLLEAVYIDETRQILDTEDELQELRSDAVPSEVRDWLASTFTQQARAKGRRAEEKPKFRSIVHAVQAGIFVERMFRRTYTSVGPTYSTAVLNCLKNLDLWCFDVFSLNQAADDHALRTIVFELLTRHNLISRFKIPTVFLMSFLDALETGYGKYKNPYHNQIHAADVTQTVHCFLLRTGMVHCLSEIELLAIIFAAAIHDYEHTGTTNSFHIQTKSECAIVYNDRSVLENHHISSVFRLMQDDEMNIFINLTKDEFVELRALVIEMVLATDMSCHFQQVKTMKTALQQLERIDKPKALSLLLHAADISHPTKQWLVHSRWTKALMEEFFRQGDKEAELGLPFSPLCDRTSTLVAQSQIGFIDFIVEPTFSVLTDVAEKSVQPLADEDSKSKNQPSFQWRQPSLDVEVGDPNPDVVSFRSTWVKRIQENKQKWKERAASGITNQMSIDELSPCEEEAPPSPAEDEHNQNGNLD

inhibition at 1 µM ([3]; 1 μM, mean ± SEM, 3 experiments, read-out: PDE4D3 inhibition): 26.5 ± 0.7%
selective inhibitory index (SI) PDE4D/PDE4A ([3]; ratio of IC50 values): 6.7
selective inhibitory index (SI) PDE4D/PDE4B ([3]; ratio of IC50 values): 3.3
IC50 ([3]; recombinant enzyme, mean ± SEM of three measurements): 4.7 ± 0.09 µM
inhibition of PDE2A [5]: unable to inhibit
inhibition of PDE1B [6]: unable to inhibit
SMILES: COc1ccc(CCNS(=O)(=O)c2cc3c(cc2C)OCO3)cc1OC [6a (LASSBio-448), N-(3,4-dimethoxyphenethyl)-6-methylbenzo[d][1, 3]dioxole-5-sulfonamide]
eosinophil levels in bronchoalveolar lavage fluid ([1]; Fig 4A): clearly prevented the up-regulation
eosinophil levels in lung tissue homogenates (EPO colorimetric assay) ([1]; Fig 4B): clearly prevented the up-regulation
reduction of sleep time (duration of xylazine/ketamine anesthesia) ([2]; 11 μmol/Kg oral): 24.1%
reduction of sleep time (duration of xylazine/ketamine anesthesia) ([2]; 27 μmol/Kg oral): 26.6%
reduction of sleep time (duration of xylazine/ketamine anesthesia) ([2]; 80 μmol/Kg oral): 35.5%
fold less pro-emetic than rolipram ([2]; vs rolipram): at least 7 fold
inhibition of PDE3 activity [4]: failed to inhibit
extracellular matrix deposition (histology) ([7]; interventional, Fig 6): sensitive to the interventional treatment
mucus exacerbation (histology) ([7]; interventional, Fig 6): sensitive to the interventional treatment
airway hyper-reactivity to methacholine, airway resistance ([7]; rolipram 10 mg/Kg oral, Fig 7A): equally effective in inhibiting
airway hyper-reactivity to methacholine, lung elastance ([7]; rolipram 10 mg/Kg oral, Fig 7B): equally effective in inhibiting
IL-4 level in lung tissue [7, 8]: reduction in the levels
IL-5 level in lung tissue [7, 8]: reduction in the levels
IL-13 level in lung tissue [7, 8]: reduction in the levels
eotaxin-2 level in lung tissue [7, 8]: reduction in the levels
allergen-induced eosinophil accumulation in the lung tissue (eosinophil peroxidase) ([7]; rolipram 10 mg/kg oral, at third and fourth weeks of challenge, Fig 5): impair the progress

From publication PMC5047629, “Synthesis, Pharmacological Profile and Docking Studies of New Sulfonamides Designed as Phosphodiesterase-4 Inhibitors” (PLoS ONE, 2016)
